Measurements published in patent US11104663B2 (priority 2017, dated 2021).
Read-outs that look alike come from different tables or passages of the source.

Tests used:
[1] = format: physicochemical; details: for d50: median particle size; for d10 / d90: particle size; for d10: 10th percentile; for d90: 90th percentile
Method: The suspensions were sonicated in a bath or with a sonic probe prior to analysis to deagglomerate and form a homogeneous suspension. Particle size was analyzed by both light obscuration and laser diffraction methods.

[2] = Specific surface area analysis (BET); details: for SSA: BET method
[3] = rat, i.v. 5 mg/kg
in vivo = details: male, Sprague Dawley (CD), rat, lung
[4] = Example 1 processed vs raw material

Cl.O=C(O)c1cn(C2CC2)c2cc(N3CCNCC3)c(F)cc2c1=O [Example 1 processed, 1-cyclopropyl-6-fluoro-4-oxo-7-(piperazin-1-yl)-1,4-dihydroquinoline-3-carboxylic acid hydrochloride salt]
% Change of d10 [1, 4]: −90%
% Change of d50 [1, 4]: −94%
% Change of d90 [1, 4]: −94%
d50 ([1]; hydrochloride salt): 1.37 μm
d10 ([1]; hydrochloride salt): 0.61 μm
d90 ([1]; hydrochloride salt): 3.64 μm
SSA ([2]; hydrochloride salt): 19.42 m^2/g
% Change of SSA [2, 4]: +153%

O=C(O)c1cn(C2CC2)c2cc(N3CCNCC3)c(F)cc2c1=O [Example 2 processed Batch 2, 1-cyclopropyl-6-fluoro-4-oxo-7-(piperazin-1-yl)-1,4-dihydroquinoline-3-carboxylic acid]
d50 [1]: 5.57 μm
d10 [1]: 1.79 μm
d90 [1]: 13.3 μm
SSA [2]: 14.3 m^2/g

O=C(O)c1cn(C2CC2)c2cc(N3CCNCC3)c(F)cc2c1=O [Ciprofloxacin Raw material, 1-cyclopropyl-6-fluoro-4-oxo-7-(piperazin-1-yl)-1,4-dihydroquinoline-3-carboxylic acid, reference compound]
d50 [1]: 14.8 μm
d10 [1]: 1.44 μm
d90 [1]: 244 μm
SSA [2]: 11.8 m^2/g

O=C(O)c1cn(C2CC2)c2cc(N3CCNCC3)c(F)cc2c1=O [Example 2 processed Batch 1, 1-cyclopropyl-6-fluoro-4-oxo-7-(piperazin-1-yl)-1,4-dihydroquinoline-3-carboxylic acid]
d50 [1]: 4.63 μm
d10 [1]: 1.62 μm
d90 [1]: 9.32 μm
SSA [2]: 7.68 m^2/g

O=C(O)c1cn(C2CC2)c2cc(N3CCNCC3)c(F)cc2c1=O [ciprofloxacin, reference compound]
Lung concentration ([3]; 12 hours): BQL*
Lung concentration ([3]; 24 hours): BQL
concentration at 0.5 h (in vivo; iv, 5 mg/kg): 843 ng/g
concentration at 6 h (in vivo; iv, 5 mg/kg): 113 ng/g

O=C(O)c1cn(C2CC2)c2cc(N3CCNCC3)c(F)cc2c1=O [Ex. 2 ciprofloxacin, 1-cyclopropyl-6-fluoro-4-oxo-7-(piperazin-1-yl)-1,4-dihydroquinoline-3-carboxylic acid]
concentration at 0.5 h (in vivo; inhaled, 3 mg/kg): 153000 ng/g
concentration at 6 h (in vivo; inhaled, 3 mg/kg): 48400 ng/g
concentration at 12 h (in vivo; inhaled, 3 mg/kg): 12800 ng/g
concentration at 24 h (in vivo; inhaled, 3 mg/kg): 607 ng/g

Cl.O=C(O)c1cn(C2CC2)c2cc(N3CCNCC3)c(F)cc2c1=O [Ciprofloxacin hydrochloride Raw material, 1-cyclopropyl-6-fluoro-4-oxo-7-(piperazin-1-yl)-1,4-dihydroquinoline-3-carboxylic acid hydrochloride salt, reference compound]
d50 ([1]; hydrochloride salt): 22.7 μm
d10 ([1]; hydrochloride salt): 6.05 μm
d90 ([1]; hydrochloride salt): 56.0 μm
SSA ([2]; hydrochloride salt): 7.68 m^2/g

O=C(O)c1cn(C2CC2)c2cc(N3CCNCC3)c(F)cc2c1=O [Example 2 processed Batch 3, 1-cyclopropyl-6-fluoro-4-oxo-7-(piperazin-1-yl)-1,4-dihydroquinoline-3-carboxylic acid]
d50 [1]: 3.26 μm
d10 [1]: 1.19 μm
d90 [1]: 6.65 μm
SSA [2]: 12.9 m^2/g
